Values of other authors in patent US20150265628A1, “GENOMIC TESTING FOR EFFECTIVE THERAPIES AND DETERMINATION OF DOSING STRATEGY” (CompanionDx Reference Lab, LLC, priority 2014, published 2015).

What was measured:
[1] = patients with schizophrenia, while taking the drug; perphenazine 1.0 as comparator
HLA-DQB1 = details: marker carriers, under the current blood-monitoring system

| SMILES | risk of death from suicide, adjusted for risk factors [1] | risk of CIA higher than the overall clozapine-treated population (HLA-DQB1) |
| --- | --- | --- |
| CN1CCN(C2=Nc3cc(Cl)ccc3Nc3ccccc32)CC1 [clozapine] | 0.34 | 1,175% |
| OCCOCCN1CCN(C2=Nc3ccccc3Sc3ccccc32)CC1 [quetiapine] | 1.58 |  |
| OCCN1CCN(CCCN2c3ccccc3Sc3ccc(Cl)cc32)CC1 [perphenazine] | 1.0 |  |
